Test results as given in patent US12465630B2, “Small peptide compositions and uses thereof” (University of Pittsburgh—Of the Commonwealth System of …, priority 2018, dated 2025).

How the values were obtained:
cardiac fibroblasts [1] = assay: Motility (scratch) assay, cardiac fibroblasts; type: cell-based, mouse
Method: (§1) Primary cardiac fibroblasts and cardiomyocytes were isolated from both wild-type and CXCR3−/− neonatal mouse pups. After washing in PBS, hearts were stirred for 5 minutes in 0.5% trypsin at 37° C. to dissociate cells into solution. The suspended cells were then transferred to DMEM containing 20% fetal bovine serum (FBS) on ice to inactivate trypsin activity, and dissociation was repeated twice more with fresh trypsin solution. Cells were then washed and plated into 6-well plates at 1.25×10^6 cells/well, suspended in cardiac cell media (DMEM containing 7.5% dialyzed FBS and 1% antibiotic/antimitotic solution). After three hours, adhered fibroblasts were separated from the unattached cardiomyocytes through resuspension of the cells, and cardiomyocytes were plated separately at a density of 5×10^5 cells/ml.
(§2) To determine the effect of IP-10p on TGFβ1-induced cell migration, motility assays were performed on cardiac fibroblasts, cardiomyocytes, and co-cultures (2:1 ratio of cardiomyocytes to fibroblasts). Cells were plated at 2.5×10^5 cells/well in a 12-well uncoated plate in depleted media (DMEM containing 0.5% FBS) 24 hours before beginning the experiment. A pipette tip was used to create a scratch in the monolayer and the plate was washed twice with PBS to remove scraped cells. Cells were then treated with TGFβ1 (R&D Systems, Minneapolis, MN) alone (10 ng/mL) to stimulate fibrosis, CXCL10 alone (10 μM), IP-10p alone (10 μM), TGFβ1+CXCL10, TGFβ1+IP-10p, or left untreated. Images were taken immediately after scratching and 24 hours later, and Adobe Photoshop was used to quantify wound motility as distance between wound edges relative to the initial scratch width.

cardiomyocytes = assay: Motility (scratch) assay, cardiomyocytes; type: cell-based, mouse; settings: TGFβ1 10 ng/mL + agent 10 μM, 24 h, FIG. 1A
Method: as §1, §2

[2] = test system: co-cultures of cardiomyocytes and cardiac fibroblasts; assay: Motility (scratch) assay, co-cultures; type: cell-based, mouse; settings: co-culture 2:1 cardiomyocytes to fibroblasts; FIG. 1C; listed as IP-10 Peptide
Method: as §1
To determine the effect of IP-10p on TGFβ1-induced cell migration, motility assays were performed on cardiac fibroblasts, cardiomyocytes, and co-cultures (2:1 ratio of cardiomyocytes to fibroblasts). Cells were plated at 2.5×10^5 cells/well in a 12-well uncoated plate in depleted media (DMEM containing 0.5% FBS) 24 hours before beginning the experiment. […] Images were taken immediately after scratching and 24 hours later, and Adobe Photoshop was used to quantify wound motility as distance between wound edges relative to the initial scratch width.

cardiac fibroblasts [3] = assay: Fibroblast activation assay (αSMA), cardiac fibroblasts; type: cell-based, mouse
Method: as §1
(§3) Fibroblast activation to myofibroblasts is marked by αSMA expression within the cytoskeleton and serves as a marker to induce fibrosis. Cardiac fibroblasts were plated at 2,000 cells/well in an 8-well chamber slide and allowed to adhere overnight. After 24 hours, cells were washed and treated with: TGFβ1 alone (10 ng/ml), CXCL10 alone (10 μM), IP-10p alone (10 μM), TGFβ1+CXCL10, TGFβ1+IP-10p, or left untreated. After 24 hours, cells were fixed in ice cold methanol for 10 minutes and stained for αSMA (1:200, Abcam ab5694, Cambridge, UK) at 4° C. overnight, followed by a goat-anti-rabbit Alexa Fluor 594-conjugated secondary antibody (Abcam ab150080). After counterstaining with DAPI, cells were imaged, and fibroblast activation was measured using corrected total cell fluorescence (CTCF). These measurements were also performed in co-cultures of cardiomyocytes and cardiac fibroblasts (2:1 ratio)

[4] = test system: co-cultures of cardiomyocytes and cardiac fibroblasts; assay: Fibrotic extracellular matrix (ECM) secretion, co-cultures; type: cell-based, mouse; settings: 48 h
Method: as §1
Cardiac fibrosis is marked by overproduction of ECM proteins following injury. To observe the effect of IP-10p on secretion of these molecules, co-cultures of cardiomyocytes and cardiac fibroblasts were used to account for […] signaling taking place between the two dominant cell types in the heart. Fibroblasts and myocytes were plated at a 2:1 ratio using the same culture conditions and treatment groups described above for fibroblast activation. Following a 48-hour incubation with their respective treatments, cells were fixed, permeabilized and stained. Antibodies for collagen α1 type 1 (1:250, Santa Cruz Biotechnology SC8784, Dallas, TX), fibronectin (1:250, Abcam ab2413), and tenascin C (1:200, Abcam ab6346), followed by their appropriate secondary antibodies (Abcam ab150132, ab150077, and 150153, respectively), were used to determine fibrotic ECM secretion from the co-cultures. Expression of these molecules is expressed at CTCF and was quantified using MetaMorph® (Molecular Devices, Sunnyvale, CA).

[5] = test system: CXCR3−/− co-cultures of cardiac fibroblasts and cardiomyocytes; assay: Myofibroblast differentiation and ECM in CXCR3−/− co-cultures; type: cell-based, mouse; settings: CXCR3−/− cells, TGFβ1
Method: as §1, §3
Cardiac fibrosis is marked by overproduction of ECM proteins following injury. […] Expression of these molecules is expressed at CTCF and was quantified using MetaMorph® (Molecular Devices, Sunnyvale, CA).
In addition to cell motility, myofibroblast differentiation in CXCR3−/− cells in response to IP-10p was assessed. […]

CXCR3 = molecular target: T1, CXCR3 (Homo sapiens, UniProt P49682); settings: cited from earlier work
T1 sequence (P49682 1-415 isoform P49682-2): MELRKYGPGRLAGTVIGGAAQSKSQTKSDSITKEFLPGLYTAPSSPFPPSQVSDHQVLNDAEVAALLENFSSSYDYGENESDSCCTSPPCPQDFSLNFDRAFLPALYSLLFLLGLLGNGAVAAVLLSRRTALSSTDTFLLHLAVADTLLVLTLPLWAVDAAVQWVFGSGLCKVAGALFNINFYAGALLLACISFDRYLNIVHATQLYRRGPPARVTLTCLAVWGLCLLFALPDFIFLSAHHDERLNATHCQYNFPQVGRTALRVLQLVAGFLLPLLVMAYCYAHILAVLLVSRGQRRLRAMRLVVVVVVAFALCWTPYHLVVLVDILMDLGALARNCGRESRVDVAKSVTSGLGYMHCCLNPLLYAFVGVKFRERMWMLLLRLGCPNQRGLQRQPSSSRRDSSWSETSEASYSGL

[6] = agent alone vs unstimulated cultures

PESKAIKNLLKAVSKEMSKRSP [IP-10p, 22-amino acid CXCL10 peptide spanning the C-terminal residues (77-98) of IP-10, the alpha-helical region]
motility of cardiac fibroblasts, agent alone (cardiac fibroblasts [1]; 10 μM alone, 24 h, compared to control): not altered | migration following TGF-β induction in cardiac fibroblasts (cardiac fibroblasts [1]; FIG. 1B): inhibit migration | reduction of motility of TGFβ1-treated fibroblasts (cardiac fibroblasts [1]; TGFβ1 10 ng/mL + agent 10 μM, 24 h): over 40% | cardiomyocyte motility in the presence of TGFβ1 (cardiomyocytes): completely inhibited | cardiomyocyte motility in the presence of TGFβ1 (cardiomyocytes; listed as IP-10 Peptide): inhibit migration | cellular migration in TGF-β induced co-cultures [2]: inhibits cellular migration | reduction of activation of fibroblasts (αSMA) compared to the untreated control (cardiac fibroblasts [3]; IP-10p alone 10 μM, 24 h): 33% | αSMA expression in the presence of TGFβ1 (cardiac fibroblasts [3]; TGFβ1 10 ng/mL + IP-10p 10 μM vs TGFβ1 alone): reduced αSMA expression | collagen expression in the presence of TGFβ1 ([4]; TGFβ1 10 ng/mL + agent 10 μM): reduced expression of both these proteins to baseline levels | fibronectin expression in the presence of TGFβ1 ([4]; TGFβ1 10 ng/mL + agent 10 μM): reduced expression of both these proteins to baseline levels | collagen secretion, agent alone [4, 6]: reduced collagen and fibronectin secretion | fibronectin secretion, agent alone [4, 6]: reduced collagen and fibronectin secretion | expression of αSMA in CXCR3−/− co-cultures [5]: inhibiting expression | upregulation of collagen I in CXCR3−/− co-cultures [5]: inhibited upregulation | upregulation of fibronectin in CXCR3−/− co-cultures [5]: inhibited upregulation | activation of the CXCR3B isoform (CXCR3; PCT Publication Nos. WO 2013/032853 and WO 2015/112505): activates the CXCR3B isoform | competition for binding and activation of CXCR3 (CXCR3; compared with whole CXCL10): competes for binding and activation of CXCR3 in an equimolar manner to whole CXCL10
